Laboratory results taken from the NIST ThermoML archive (doi:10.1016/j.jct.2008.09.002).

How the values were obtained:
[1] = molar heat capacity at constant pressure; xn = mol fraction of the nth substance listed; conditions: 101.3 kPa, Liquid, Small sample (50 mg) DSC
[2] = xn = mol fraction of the nth substance listed; conditions: 101.3 kPa, Liquid, Vibrating tube method
[3] = excess molar enthalpy (molar enthalpy of mixing); xn = mol fraction of the nth substance listed; conditions: 303.15 K, 101.3 kPa, Liquid, Calvet calorimetry

CCCCCCn1cc[n+](C)c1.F[B-](F)(F)F [1-hexyl-3-methylimidazolium tetrafluoroborate] + C[N+](=O)[O-]
Conditions | mass density, [2] [kg/m3] | molar heat capacity at constant pressure, [1] [J/K/mol]
293.15 K, x1 = 0.098 | 1148.7 | 136.3
293.15 K, x1 = 0.1933 | 1150.7 | 166.4
293.15 K, x1 = 0.3062 | 1151.2 | 202.6
293.15 K, x1 = 0.3988 | 1151.1 | 232.4
293.15 K, x1 = 0.4936 | 1150.9 | 262.8
293.15 K, x1 = 0.5941 | 1150.5 | 295.4
293.15 K, x1 = 0.5973 | 1150.5 | –
293.15 K, x1 = 0.6839 | 1150.1 | –
293.15 K, x1 = 0.6917 | 1150 | 326.6
293.15 K, x1 = 0.7702 | 1149.8 | 351.4
293.15 K, x1 = 0.7767 | 1149.7 | –
293.15 K, x1 = 0.786 | 1149.6 | –
293.15 K, x1 = 0.8514 | 1149.3 | –
293.15 K, x1 = 0.8665 | 1149.2 | 382.6
293.15 K, x1 = 0.8727 | 1149.2 | –
298.15 K, x1 = 0.098 | 1143.2 | 136.7
298.15 K, x1 = 0.1933 | 1145.8 | 167
298.15 K, x1 = 0.3062 | 1146.7 | 203.5
298.15 K, x1 = 0.3988 | 1146.9 | 233.4
298.15 K, x1 = 0.4936 | 1146.8 | 264
298.15 K, x1 = 0.5941 | 1146.6 | 296.8
298.15 K, x1 = 0.5973 | 1146.6 | –
298.15 K, x1 = 0.6839 | 1146.4 | –
298.15 K, x1 = 0.6917 | 1146.2 | 328.3
298.15 K, x1 = 0.7702 | 1146.1 | 353.4
298.15 K, x1 = 0.7767 | 1146 | –
298.15 K, x1 = 0.786 | 1146 | –
298.15 K, x1 = 0.8514 | 1145.8 | –
298.15 K, x1 = 0.8665 | 1145.7 | 384.8
298.15 K, x1 = 0.8727 | 1145.7 | –
303.15 K, x1 = 0.098 | 1137.7 | 137.2
303.15 K, x1 = 0.1933 | 1140.9 | 167.7
303.15 K, x1 = 0.3062 | 1142.3 | 204.4
303.15 K, x1 = 0.3988 | 1142.7 | 234.5
303.15 K, x1 = 0.4936 | 1142.8 | 265.4
303.15 K, x1 = 0.5941 | 1142.8 | 298.3
303.15 K, x1 = 0.5973 | 1142.8 | –
303.15 K, x1 = 0.6839 | 1142.6 | –
303.15 K, x1 = 0.6917 | 1142.5 | 330
303.15 K, x1 = 0.7702 | 1142.5 | 355.4
303.15 K, x1 = 0.7767 | 1142.4 | –
303.15 K, x1 = 0.786 | 1142.4 | –
303.15 K, x1 = 0.8514 | 1142.3 | –
303.15 K, x1 = 0.8665 | 1142.1 | 387
303.15 K, x1 = 0.8727 | 1142.2 | –
308.15 K, x1 = 0.098 | 1132.1 | 137.7
308.15 K, x1 = 0.1933 | 1136 | 168.4
308.15 K, x1 = 0.3062 | 1137.8 | 205.3
308.15 K, x1 = 0.3988 | 1138.5 | 235.6
308.15 K, x1 = 0.4936 | 1138.8 | 266.7
308.15 K, x1 = 0.5941 | 1138.9 | 299.8
308.15 K, x1 = 0.5973 | 1138.9 | –
308.15 K, x1 = 0.6839 | 1138.9 | –
308.15 K, x1 = 0.6917 | 1138.8 | 331.7
308.15 K, x1 = 0.7702 | 1138.9 | 357.3
308.15 K, x1 = 0.7767 | 1138.8 | –
308.15 K, x1 = 0.786 | 1138.8 | –
308.15 K, x1 = 0.8514 | 1138.7 | –
308.15 K, x1 = 0.8665 | 1138.6 | 389.1
308.15 K, x1 = 0.8727 | 1138.6 | –
313.15 K, x1 = 0.098 | 1126.6 | 138.3
313.15 K, x1 = 0.1933 | 1131.1 | 169.2
313.15 K, x1 = 0.3062 | 1133.4 | 206.3
313.15 K, x1 = 0.3988 | 1134.3 | 236.9
313.15 K, x1 = 0.4936 | 1134.8 | 268.2
313.15 K, x1 = 0.5941 | 1135.1 | 301.3
313.15 K, x1 = 0.5973 | 1135.1 | –
313.15 K, x1 = 0.6839 | 1135.2 | –
313.15 K, x1 = 0.6917 | 1135.1 | 333.4
313.15 K, x1 = 0.7702 | 1135.3 | 359.2
313.15 K, x1 = 0.7767 | 1135.2 | –
313.15 K, x1 = 0.786 | 1135.2 | –
313.15 K, x1 = 0.8514 | 1135.2 | –
313.15 K, x1 = 0.8665 | 1135.1 | 391.3
313.15 K, x1 = 0.8727 | 1135.1 | –
318.15 K, x1 = 0.098 | 1121 | 138.8
318.15 K, x1 = 0.1933 | 1126.2 | 169.9
318.15 K, x1 = 0.3062 | 1129 | 207.3
318.15 K, x1 = 0.3988 | 1130.2 | 238.1
318.15 K, x1 = 0.4936 | 1130.9 | 269.6
318.15 K, x1 = 0.5941 | 1131.3 | 302.8
318.15 K, x1 = 0.5973 | 1131.3 | –
318.15 K, x1 = 0.6839 | 1131.5 | –
318.15 K, x1 = 0.6917 | 1131.4 | 335
318.15 K, x1 = 0.7702 | 1131.6 | 361.1
318.15 K, x1 = 0.7767 | 1131.6 | –
318.15 K, x1 = 0.786 | 1131.6 | –
318.15 K, x1 = 0.8514 | 1131.7 | –
318.15 K, x1 = 0.8665 | 1131.6 | 393.4
318.15 K, x1 = 0.8727 | 1131.6 | –

[3]
Conditions | excess molar enthalpy [kcal/mol]
x1 = 0.1 | -0.0174
x1 = 0.2074 | -0.0296
x1 = 0.3028 | -0.0349
x1 = 0.4096 | -0.0382
x1 = 0.5095 | -0.038
x1 = 0.6072 | -0.0342
x1 = 0.7148 | -0.027
x1 = 0.7891 | -0.0225
x1 = 0.8821 | -0.012

C[N+](=O)[O-] [nitromethane] + CCCCn1cc[n+](C)c1.O=S(=O)([O-])C(F)(F)F
Conditions | mass density, [2] [kg/m3] | molar heat capacity at constant pressure, [1] [J/K/mol]
293.15 K, x2 = 0.0495 | 1173.6 | 121.1
293.15 K, x2 = 0.0972 | 1196.4 | 136
293.15 K, x2 = 0.2021 | 1229.9 | 168.8
293.15 K, x2 = 0.2955 | 1249.1 | 198.5
293.15 K, x2 = 0.4015 | 1264.3 | 231.5
293.15 K, x2 = 0.495 | 1274.2 | 261.4
293.15 K, x2 = 0.5993 | 1282.6 | 294.6
293.15 K, x2 = 0.6939 | 1288.6 | 324.4
293.15 K, x2 = 0.7858 | 1293.3 | 353.8
293.15 K, x2 = 0.8697 | 1296.9 | 380.5
293.15 K, x2 = 0.9286 | 1299.1 | 398.8
298.15 K, x2 = 0.0495 | 1167.4 | 121.4
298.15 K, x2 = 0.0972 | 1190.6 | 136.4
298.15 K, x2 = 0.2021 | 1224.7 | 169.4
298.15 K, x2 = 0.2955 | 1244.2 | 199.4
298.15 K, x2 = 0.4015 | 1259.7 | 232.6
298.15 K, x2 = 0.495 | 1269.7 | 262.6
298.15 K, x2 = 0.5993 | 1278.2 | 296.1
298.15 K, x2 = 0.6939 | 1284.3 | 326.1
298.15 K, x2 = 0.7858 | 1289.1 | 355.6
298.15 K, x2 = 0.8697 | 1292.8 | 382.7
298.15 K, x2 = 0.9286 | 1295.1 | 400.9
303.15 K, x2 = 0.0495 | 1161.2 | 121.8
303.15 K, x2 = 0.0972 | 1184.8 | 137
303.15 K, x2 = 0.2021 | 1219.4 | 170.1
303.15 K, x2 = 0.2955 | 1239.3 | 200.3
303.15 K, x2 = 0.4015 | 1255 | 233.9
303.15 K, x2 = 0.495 | 1265.2 | 263.9
303.15 K, x2 = 0.5993 | 1273.9 | 297.8
303.15 K, x2 = 0.6939 | 1280.1 | 327.9
303.15 K, x2 = 0.7858 | 1285 | 357.5
303.15 K, x2 = 0.8697 | 1288.8 | 385
303.15 K, x2 = 0.9286 | 1291.1 | 403.3
308.15 K, x2 = 0.0495 | 1154.9 | 122.3
308.15 K, x2 = 0.0972 | 1178.9 | 137.5
308.15 K, x2 = 0.2021 | 1214.2 | 170.9
308.15 K, x2 = 0.2955 | 1234.3 | 201.4
308.15 K, x2 = 0.4015 | 1250.3 | 235.2
308.15 K, x2 = 0.495 | 1260.7 | 265.3
308.15 K, x2 = 0.5993 | 1269.6 | 299.5
308.15 K, x2 = 0.6939 | 1275.9 | 329.8
308.15 K, x2 = 0.7858 | 1280.9 | 359.6
308.15 K, x2 = 0.8697 | 1284.7 | 387.4
308.15 K, x2 = 0.9286 | 1287.1 | 405.7
313.15 K, x2 = 0.0495 | 1148.8 | 122.8
313.15 K, x2 = 0.0972 | 1173.2 | 138.2
313.15 K, x2 = 0.2021 | 1209 | 171.7
313.15 K, x2 = 0.2955 | 1229.5 | 202.5
313.15 K, x2 = 0.4015 | 1245.7 | 236.6
313.15 K, x2 = 0.495 | 1256.3 | 266.8
313.15 K, x2 = 0.5993 | 1265.3 | 301.3
313.15 K, x2 = 0.6939 | 1271.7 | 331.8
313.15 K, x2 = 0.7858 | 1276.8 | 361.8
313.15 K, x2 = 0.8697 | 1280.7 | 389.9
313.15 K, x2 = 0.9286 | 1283.1 | 408.3
318.15 K, x2 = 0.0495 | 1142.5 | 123.3
318.15 K, x2 = 0.0972 | 1167.4 | 138.7
318.15 K, x2 = 0.2021 | 1203.7 | 172.5
318.15 K, x2 = 0.2955 | 1224.6 | 203.6
318.15 K, x2 = 0.4015 | 1241.1 | 238
318.15 K, x2 = 0.495 | 1251.8 | 268.3
318.15 K, x2 = 0.5993 | 1261 | 303.2
318.15 K, x2 = 0.6939 | 1267.5 | 334
318.15 K, x2 = 0.7858 | 1272.7 | 364.1
318.15 K, x2 = 0.8697 | 1276.7 | 392.6
318.15 K, x2 = 0.9286 | 1279.1 | 411.1

[3]
Conditions | excess molar enthalpy [kcal/mol]
x2 = 0.1022 | 0.00932
x2 = 0.1994 | 0.0136
x2 = 0.3029 | 0.0148
x2 = 0.4044 | 0.0141
x2 = 0.5067 | 0.0134
x2 = 0.5931 | 0.0108
x2 = 0.703 | 0.00741
x2 = 0.7814 | 0.0012
x2 = 0.8933 | -0.00215
